Series [1] deals with Neuronal cortical cells treated with Aβ1-42. The series can be described thus: Assay 3(c) Aβ neurotoxicity and Aβ neuroprotection (MTS). It counts as cell-based, mouse. Particulars: 20 uM Aβ1-42, 4 days. The protocol:
Primary Cortical Neuronal Cultures
Cortical cultures were prepared as previously described (White et al., 1998). Embryonic day 14 BL6Jx129sv mouse cortices were removed, dissected free of meninges and dissociated in 0.025% (wt/vol) trypsin. Dissociated cells were plated in 48 well culture plates at a density of 2×10^6 cells/mL in MEM with 25% (vol/vol) FCS and 5% (vol/vol) HS and incubated at 37° C., 2 hrs. Media was then replaced with Neurobasal media (Invitrogen Life Technologies) and B27 supplements (Invitrogen Life Technologies). Cultures were maintained at 37° C. in 5% CO2. Prior to experimentation, the culture medium was replaced with Neurobasal media and B27 minus antioxidants (Invitrogen Life Technologies).
(c) Assay for Aβ Neurotoxicity and Aβ Neuroprotection
Neuronal cortical cells were cultured for five days as per Assay 2. On day six the neurobasal (NB) media (Invitrogen Life Technologies) and B27 supplement (Invitrogen Life Technologies) were replaced with NB media and B27 supplement (no antioxidants). On day six, test compounds were individually added to the neuronal cell cultures:
The test compounds were dissolved in 100% DMSO to a concentration of 2.5 mM (10 mM if excess compound was weighed out per vial—then diluted to 2.5 mM). 2.5 mM stock solution was serially diluted 1 in 10 to give working solutions of 250 uM, 25 uM, 2.5 uM.
Aβ was initially dissolved in 20 mM NaOH to a concentration of 1 mM and sonicated for 5 minutes. The peptide was then diluted in H2O and 10×PBS to a final concentration of 200 uM Aβ in 1×PBS. The peptide was again sonicated for 5 minutes and then spun at 14000 rpm for 5 min and transferred to a fresh tube.
The test compounds were dissolved in 100% DMSO to a concentration of 2.5 mM (10 mM if excess compound was weighed out per vial—then diluted to 2.5 mM). 2.5 mM stock solution was serially diluted 1 in 10 [in NB media and B27 (no antioxidants)] to give working solutions of 250 uM, 25 uM, 2.5 uM. Test compounds were not added directly to cells, instead they were added to a 48 well ‘Drug Plate’ as comprised below:
Preparation of “Drug Plate”:
• Well 1: 515 ul NB+B27(no antioxidant)*+24 ul 25 uM test compound+60 ul Aβ diluent** • Well 2: 515 ul NB+B27(no antioxidant)+24 ul 250 uM test compound+60 ul Aβ diluent • Well 3: 515 ul NB+B27(no antioxidant)+24 ul test compound diluent***+60 ul Aβ1-42 • Well 4: 515 ul NB+B27(no antioxidant)+24 ul 2.5 uM test compound+60 ul Aβ1-42 • Well 5: 515 ul NB+B27(no antioxidant)+24 ul 25 uM test compound+60 ul Aβ1-42 • Well 6: 515 ul NB+B27(no antioxidant)+24 ul 250 uM test compound+60 ul […] • Well 7: 515 ul NB+B27(no antioxidant)+24 ul test compound diluent+60 ul Aβ1-42 diluent • Well 8: 600 ul NB+B27(no antioxidant) • N.B. 60 ul Aβ1-42 equals 20 ul Aβ1-42 per well equals 20 uM Aβ1-42
The Drug Plate was incubated at 37° C. for 15 mins. 200 ul of each well was added in triplicate to the corresponding cell plate. The cell plate was incubated at 37 C, for 4 days. • * NB media+B27 (no antioxidants), • ** Aβ diluent 2 mM NaOH, 1×PBS • *** PBT diluent 10% DMSO in NB+B27(no antioxidant) Completion of the Assay:
On the 4th day after treating the cells the assay is completed by adding MTS to the cells.

Series [2] relates to moderately severe AD patients. The experiment in a line: Phase II clinical trial in Alzheimer's disease: cognition (ADAS-cog). Format: in vivo, human. Particulars: more-severely affected groups. An excerpt: The performance of the less-severely affected group (ADAS-cog<25) deteriorated negligibly over this interval, so cognitive changes could not be discriminated in this stratum.
Study population: The study took place at the AD clinical trials unit, Mental Health Research Institute of Victoria and at the Royal Melbourne Hospital. Criteria for inclusion in the study were: informed consent; a diagnosis of probable AD by NINCDS-ADRDA criteria (McKhann et al., 1984); AD Assessment Scale-cognitive (ADAS-cog) (Rosen et al., 1984) score of 18-45; Mini Mental State Examination (MMSE) (Folstein et al., 1975) score of 10-24; on donepezil 5 mg or 10 mg for at least 6 months; relative or carer willing and able to support the trial; able to complete trial examinations; primary sensorial functions intact.
(§1) Study design: The study was a double blind, placebo-controlled, parallel group randomized design. […] The duration of the study was 36 weeks.
Outcome measures: The primary clinical efficacy variable was a change from baseline score on the ADAS-cog conducted at baseline and at weeks 4, 12, 24 and 36. […]
Data preparation and statistical analysis: Data monitoring and management were undertaken by independent contractors (Kendle International and Health Research Solutions, Melbourne). […] Differences between groups on categorical measures were analysed using exact statistical methods in order to maximise power. […]

The nature of series [3]: Phase II clinical trial: therapeutic drug monitoring, blood levels by HPLC. Particulars: human, oral, read-out: Steady state pre-dose blood level. It counts as in vivo.
Excerpt: as §1

A short description of series [4]: Phase II clinical trial: plasma metal levels (ICP-MS). It counts as in vivo, human. Particulars: AD patients, oral.
Excerpt: as §1
Blood samples were collected by antecubital venepuncture except on weeks 12, 24 and 36 when they were collected by an indwelling catheter. […] Zn data from these intervals were therefore omitted from analysis.
Outcome measures: The primary clinical efficacy variable was a change from baseline score on the ADAS-cog conducted at baseline and at weeks 4, 12, 24 and 36. This measure was chosen to allow comparability of treatment effects with current therapeutics such as donepezil, where efficacy trials also used ADAS-cog as their primary outcome measure (Rogers et al., 1998). Although numerous neuropsychological tests could be considered as secondary measures, it was necessary to avoid fatiguing the subjects at review. Therefore the only other cognitive test was the Mini-Mental State Exam (MMSE). The CIBIC+ (clinician interview based impression of change incorporating caregiver information), a subjective observational index was also conducted. Plasma Aβ, and plasma zinc and copper were all taken every four weeks.
Metal levels: Metals were measured by inductively coupled plasma mass spectrometry as previously described (Cherny et al., 2001).

The target of series [5] is T1, Aβ 1-42 (Homo sapiens, UniProt P05067).
T1 construct: The reaction solutions contained Aβ 1-42
T1 sequence (P05067 672-713 limits assumed): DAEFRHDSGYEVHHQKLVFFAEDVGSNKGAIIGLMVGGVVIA
The series can be described thus: Assay 1 Fluorometric H2O2 assay: inhibition of hydrogen peroxide generation by Aβ in the presence of copper. Format: biochemical. Particulars: Aβ 1-42 with Cu-Gly, DCF fluorescence. The protocol:
Assay 1. Fluorometric H2O2 Assay
A fluorometric assay was used to test the ability of a test compound to inhibit hydrogen peroxide generation by Aβ in the presence of copper based on dichlorofluoroscein diacetate (DCF; Molecular Probes, Eugene Oreg.). The DCF solution (5 mM) in 100% dimethyl sulphoxide (previously purged with argon for 1 hr at 20° C.) was deacetylated in the presence of 0.025M NaOH for 30 min and neutralised at pH 7.4 to a final concentration of 1 mM. Horseradish peroxidase ([…]) stock solution was prepared to 1 μM at pH 7.4. The reactions were carried out in PBS, pH 7.4 in a 96 well plate (total volume=250 μl/well). The reaction solutions contained Aβ 1-42 at concentrations in the range of 50 nM to 1 μM, copper-glycine chelate (Cu-Gly), was prepared by adding CuCl2 to glycine in the ratio of 1:6 and added to the Aβ in the proportion 2Cu-Gly: 1Aβ), reducing agents including dopamine (5 μM) or ascorbic acid, deacetylated DCF 100 μM, and HRP, 0.1 μM. 1-10 μM EDTA or another chelator may also be present as a control for free copper, but was not required for the assay to function. The reaction mixture was incubated at 37 C for 60 min. Catalase (4000 units/ml) and H2O2 (1-2.5 μM) standards in PBS pH 7.4 may be included as positive controls. Fluorescence was recorded using a plate reader with excitation and emission filters at […] respectively. H2O2 concentration may be established by comparing fluorescence with the H2O2 standards. Inhibition of Aβ H2O2 production was assayed by including a given concentration of test compound(s) in the test wells.

A short description of series [6]: Assay 12 Turbidimetric solubility measurements. Format: physicochemical. Particulars: kinetic from dmso stock, nephelometry. The protocol: Turbidimetric Solubility Measurements
The solubility estimate was measured at both pH 2.0 and pH 6.5. This is within the pH range that can be anticipated along the proximal gastrointestinal tract in humans.
The compounds were dissolved in DMSO to appropriate concentrations and then spiked into either 0.01M HCl (approx. pH=2.0) or pH 6.5 isotonic phosphate buffer, the final DMSO concentration being 1%. Samples were then analysed via Nephelometry to determine a solubility range. [as per D. Bevan and R. S. Lloyd, Anal. Chem. 2000, 72, 1781-1787].

The mark [7] stands for this setting: aqueous buffer, pH 6.5 isotonic phosphate buffer, 1% DMSO, read-out: Assay 12 Solubility at pH 6.5.
Where [8] appears, read: simulated gastric fluid, 0.01 M HCl, pH 2.0, 1% DMSO, read-out: Assay 12 Solubility in 0.01 M HCl, pH 2.0.

≈ marks a conversion by molar mass, not a printed value. Structures can show the parent of a compound that is named as a salt. Where two headings read alike, the source gives them in different places.

This is an account of results in patent publication US7692011B2, “8-hydroxy and 8-mercapto quinazolinones” (Prana Biotechnology Limited, priority 2002, dated 2010).

As for `Cc1cnc2c(Cl)cc(Cl)c(O)c2n1` [PBT 1064, 6,8-Dichloro-3-methylquinoxalin-5-ol], in series [1], the “Assay 3(c) Neuroprotection (% inhibition of Abeta toxicity)” value came out at 29%.

Turning to `Oc1c(I)cc(Cl)c2cccnc12` [PBT-1, iodochlorohydroxyquinoline], the “Difference in mean change from baseline ADAS-cog score over placebo” value is on record as 7.37 (95% CI: 1.51-13.24) in series [2] (week 24) and 6.36 (95% CI: −0.50-13.23) in series [2] (week 36). The concentration at 12 weeks in series [3] (250 mg/day, total daily dosage 250 mg) turned out to be 4030 ± 2100 ng/mL. Also, the concentration at 24 weeks in series [3] (500 mg/day, total daily dosage 500 mg) worked out at 6740 ± 3700 ng/mL. In series [3] (750 mg/day, total daily dosage 750 mg), the concentration at 36 weeks turned out to be 7600 ± 2150 ng/mL. In addition, the “Effect on plasma Cu” value in series [4] is given as “no effect”. Besides, the “Elevation of total plasma Zn” value in series [4] is listed as “≈ 30%”.

For the compound `COC(=O)c1nc(Cl)c2cccnc2c1O` [PBT-1045, 5-chloro-8-hydroxy-[1,6]naphthyridine-7-carboxylic acid methyl ester], the IC50 in series [5] was determined as 900 nM. Besides, the “Assay 3(c) Neuroprotection (% inhibition of Abeta toxicity)” value in series [1] came out at 12%.

Regarding `O=c1ccnc2c(O)cccn12` [PBT-1048, 9-hydroxypyrido[1,2-a]pyrimidin-4-one], the IC50 in series [5] was 350 nM. Moreover, the “Assay 3(c) Neuroprotection (% inhibition of Abeta toxicity)” value in series [1] stood at 22%.

As to `O=c1[nH]cnc2c(O)cccc12` [PBT-1049, 8-hydroxy-3H-quinazolin-4-one], the IC50 in series [5] came out at 1600 nM. For the same compound, the “Assay 3(c) Neuroprotection (% inhibition of Abeta toxicity)” value in series [1] stood at 11%.

Regarding `O=c1c2c(Cl)cc(Cl)c(O)c2ncn1-c1ccc(F)cc1` [PBT-1055, 5,7-Dichloro-3-(4-fluorophenyl)-8-hydroxy-3H-quinazolin-4-one], the solubility in series [6] (setting [7]) and in series [6] (setting [8]) was 3 to 6.3 µg/mL (≈ 9.23 to 19.4 µM) in each case. The IC50 in series [5] is 750 nM. For the same compound, the “Assay 3(c) Neuroprotection (% inhibition of Abeta toxicity)” value in series [1] turned out to be 29%.

As for `Cc1cnc2c(O)c(Cl)cc(Cl)c2n1` [PBT-1065, 6,8-Dichloro-2-methylquinoxalin-5-ol], the “Assay 3(c) Neuroprotection (% inhibition of Abeta toxicity)” value in series [1] is 7%.

With `CN(C)Cc1cnc2c(Cl)cc(Cl)c(O)c2n1` [PBT-1066, 6,8-Dichloro-3-(dimethylaminomethyl)quinoxalin-5-ol hydrochloride], the solubility in series [6] (setting [7]) and in series [6] (setting [8]) was more than 100 µg/mL in each case.

Consider `O=c1[nH]cnc2c(O)c(Cl)cc(Cl)c12` [PBT-1067, 5,7-Dichloro-8-hydroxy-3H-quinazolin-4-one], for which the solubility in series [6] (setting [7]) is 25 to 50 µg/mL (≈ 108 to 216 µM); in series [6] (setting [8]) it was 12.5 to 25 µg/mL (≈ 54.1 to 108 µM). Besides, in series [5], the IC50 was 950 nM.

In the case of `O=c1c(-c2ccc(Cl)cc2)cnc2c(O)cccn12` [PBT-1069, 3-(4-chlorophenyl)-9-hydroxypyrido[1,2-a]pyrimidin-4-one], the IC50 in series [5] came to 600 nM.

`CNCc1ccc2cnc(C(=O)NCc3ccc(F)cc3)c(O)c2n1` [PBT-1070]: the IC50 in series [5] worked out at 1140 nM.
